Assay results reported in publication PMC6940745 (International Journal of Molecular Sciences, 2019).
Where a SMILES comes first, the peptide text is derived from it. [ ]: non-standard residue; d: D form. The star is where a group is joined. Bz = O=C(c1ccccc1)*; NPr2 = CCCN(CCC)*

Legend:
MITF = MITF protein expression in human skin ex vivo (immunohistochemistry); format: cell-based; details: topical 30, 100 and 200 µM, six days; p < 0.05
Experimental: Following declaration of Helsinki principles (DoH-Oct2013, World Medical Association, Ferney-Voltaire, France), human skin samples were obtained from elective plastic surgery after informed consent was obtained. For the two experiments shown in Figure 2, Figure 3 and Figure 4, we had one person with an individual topology angle (ITA°) of 18, and one person with an ITA° of 39 [69]. The skin samples were cut in pieces of 8 × 3 mm and cultured up to day 6. Skin samples were cultured in an air–liquid interface in a perforated ring of stainless steel in contact with culture medium (modified Williams’ E medium). The culture medium was renewed every three days (i.e., day 0–3). Compounds were added daily in DMSO at 4 µL volume. At day 6, the skin samples were fixed in formalin, embedded in paraplast, and cut at the microtome for histochemical staining and consequent image analysis. Six skin biopsies were used for each single treatment.
Twelve skin sections from the ex vivo melanogenesis experiment above were immunoassayed with the selected antibodies (TYR, Thermo Scientific #MS-800-P0 (Thermo Scientific, Waltham, MA, USA); TYRP-1, Covance #SIG-38150 (Covance Inc., Princeton, NJ, USA), MITF, Abcam #ab80651 (Abcam plc, Cambridge, UK). The number of positive cells within the epidermis was counted and the value was normalized upon the length of the basal lamina, thus obtaining a score. […]

OP1R = target: T1, OP1R (Homo sapiens, UniProt P41143); assay: OP1R (delta opioid) activation, GTPγS scintillation proximity assay; format: biochemical; details: eight concentrations, 0.01 to 100,000 nM
T1 construct: host or cells: CHO-K1 (membrane preparations)
Experimental: Melatonin (MT1R and MT2R) and opioid receptor (OP1R, OP2R, and OP3R, corresponding to human delta, kappa, and mu opioid receptors) activation assays were performed by means of GTPγS scintillation proximity assays. For agonist testing, membrane preparations from CHO-K1 cells expressing each receptor (EuroscreenFast, Gosselies, Belgium) were mixed with guanosine diphosphate (GDP) (v/v). In parallel, GTPγ[^35S] (PerkinElmer, NEG030X, 0.1 nM final assay concentration) was mixed with PVT-WGA beads (Perkin Elmer, RPNQ001, 0.5 mg/well final assay density) (v/v) just before starting the reaction. The following reagents were then successively added in the wells of an Optiplate (Perkin Elmer): A total of 50 µL of test or reference ligand diluted in assay buffer, 10 µL of assay buffer (20 mM HEPES pH 7.4; 100–200 mM NaCl, 10 µg/mL saponin, MgCl2 at optimized concentration for the specific receptor, 0%–0.1% BSA), 20 µL of the membranes: GDP mix, and 20 µL of the GTPγ[^35S]: Beads mix. The plates were covered with a top seal, mixed on an orbital shaker for 2 min, and then incubated for 1 h at room temperature. Then the plates were centrifuged for 10 min at 2000 rpm, incubated at room temperature for 1 h, and counted for 1 min/well with a PerkinElmer TopCount™ reader.

T1 sequence (P41143 whole entry): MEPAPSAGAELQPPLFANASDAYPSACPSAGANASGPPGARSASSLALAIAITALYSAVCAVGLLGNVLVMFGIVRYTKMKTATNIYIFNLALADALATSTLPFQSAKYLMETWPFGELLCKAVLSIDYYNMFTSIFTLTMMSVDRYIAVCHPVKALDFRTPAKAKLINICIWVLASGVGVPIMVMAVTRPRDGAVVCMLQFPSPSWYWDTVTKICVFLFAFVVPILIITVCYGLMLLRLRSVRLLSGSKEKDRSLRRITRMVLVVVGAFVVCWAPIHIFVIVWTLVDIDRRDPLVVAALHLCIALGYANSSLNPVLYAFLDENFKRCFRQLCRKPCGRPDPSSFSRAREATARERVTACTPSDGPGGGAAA

CCCN(CCC)C(=O)[C@@H](Cc1c[nH]c2ccccc12)NC(=O)[C@H](CCCNC(=N)N)NC(=O)[C@@H](Cc1ccccc1)NC(=O)[C@H](Cc1c[nH]cn1)NC(=O)CNC(=O)c1ccccc1 [Peptide 4] (Bz-GH[dF]R[dW]-NPr2)
Maximal induction of MITF protein expression vs vehicle (MITF): 79%
EC50 (OP1R): > 100 µM
